Source: patent publication US12415830B2, “Steroid compound, and use thereof and preparation method therefor” (Chengdu Kanghong Pharmaceutical Co Ltd, priority 2019, dated 2025)

Target: T1, GABAA1 (α1β2γ2) receptor (Homo sapiens, UniProt P14867+P47870)
T1 construct: expressed in transfected cells
Assay: Patch-clamp electrophysiology on recombinant GABAA1 receptor in HEK293 cells, with 3 μM GABA
Format: cell-based
Conditions: for Emax at 0.1 µM / Emax at 1 µM / Emax: HEK293; for Emax at 0.1 µM: 0.1 μM compound together with 3 μmol GABA; for Emax at 0.1 µM / Emax at 1 µM: read-out: potency: ratio of the peak current on the GABAA1 receptor to the peak current in 100 μmol GABA; for Emax at 1 µM: 1 μM compound together with 3 μmol GABA; for Emax / EC50: together with 3 μmol GABA; for Emax: relative to peak current in 100 μmol GABA
Protocol: The present invention applies the two subunits of the recombinant GABAA receptor: α1β2γ2 and α4β3δ to evaluate the potency of the exemplary compounds in vitro by patch-clamp electrophysiology.
Extracellular fluid: 140 mM NaCl, 5 mM CsCl, 2 mM CaCl2·2H2O, 1 mM MgCl2·6H2O, 5 mM HEPES, 10 mM D-Glucose, pH=7.4 (NaOH).
Intracellular fluid: 130 mM CsCl, 0.1 mM CaCl2·H2O, 2 mM MgCl2·6H2O, 1.1 mM EGTA, 5 mM Na2-ATP, 10 mM HEPES, pH=7.2 (CsOH).
The HEK293 cells line stably expressing GABAA (α1β2γ2) receptors was cultured in Dulbecco's Modified Eagle Medium (DMEM) supplemented with 10% fetal bovine serum, 800 μg/mL G418, 200 μg/mL Hygromycin B and 100 μg/mL Zeocin. Cells were grown in a humidified incubator at 37° C. with 5% carbon dioxide.
Before manual patch clamp test, the cells were detached using 0.25%-Trypsin-EDTA solution. Then 8×10^3 cells were plated onto coverslips, and cultured in a 24-well plate (final medium volume: 500 μL) and tested after 18 hours by patch clamp.
Glass pipette (BF 150-86-10, Sutter Instruments) was pulled using a micropipette puller (P97, Sutter Instruments). The glass pipette was manipulated using a micro-manipulator (MP285, Sutter Instruments) under the microscope (IX71, Olympus). After touching the cell, a slight suction was applied to achieve high seal resistance (GQ). Fast capacitance (in pF) compensation was made after achieving high seal, and the membrane was broken. Cell capacitance (in pF) compensation was made from whole-cell capacitance compensation after the whole cell mode was achieved. No leak subtraction was made.
The test and control solutions flowed into a recording chamber mounted on the stage of an inverted microscope via a gravity-fed solution delivery system. During the experiment, solutions were withdrawn from the recording chamber by vacuum aspiration. Each concentration was tested at multiple times. All tests were performed at room temperature.
Whole cell model recorded GABAA1 receptors current experimental protocol was indicated as follows: When sealing, cell was at a holding potential of −70 mV, with gap-free mode to record the peak current. The cell would be applied with 3 μM GABA to active current. After the test articles application for 30 s, each concentration of test articles was applied with 3 μM GABA followed by 2 minutes washout using extracellular solution. Finally, 100 μM GABA was used as a positive control. The data were collected by EPC-10 amplifier and stored in PatchMaster (HEKA) software.
The following criteria are used to determine whether the data is acceptable: • (1) Electrode resistance <5MΩ • (2) Seal resistance >1GΩ • (3) The start of access resistance <15 MΩ • (4) The end of access resistance <15 MΩ • (5) No obvious spontaneous current decay. • (6) No obvious current leakage when the membrane potential is-70 mv. 56.6 Data Analysis
In the detection of GABAA1, the currents of 3 μM GABA and different concentrations of test compounds were respectively normalized to the current of 100 μM GABA
[formula] and then the activation rate corresponding to each concentration was calculated.
[formula] and then the activation rate corresponding to each concentration was calculated. Means, Standard Deviation and Standard Error were calculated for each test group. EC50 value was calculated using nonlinear regression: Y=Bottom+(Top−Bottom)/(1+10^((Log EC50−X)×HillSlope))
To fit data to the concentration-response, EC50 was the concentration giving a half-maximum effect and Hillslope was the Hill coefficient. Curve-fitting and EC50 calculations were performed using Graphpad5.0 software.
Emax is defined as the ratio of the peak current generated on the GABAA1 receptor to the peak current generated only in 100 μmol of GABA and the ratio is multiplied by 100%. The peak current generated on the GABAA1 receptor is that the exemplary compounds act on the GABAA1 receptor together with 3 μmol GABA.

T1 sequence (P14867 28-456): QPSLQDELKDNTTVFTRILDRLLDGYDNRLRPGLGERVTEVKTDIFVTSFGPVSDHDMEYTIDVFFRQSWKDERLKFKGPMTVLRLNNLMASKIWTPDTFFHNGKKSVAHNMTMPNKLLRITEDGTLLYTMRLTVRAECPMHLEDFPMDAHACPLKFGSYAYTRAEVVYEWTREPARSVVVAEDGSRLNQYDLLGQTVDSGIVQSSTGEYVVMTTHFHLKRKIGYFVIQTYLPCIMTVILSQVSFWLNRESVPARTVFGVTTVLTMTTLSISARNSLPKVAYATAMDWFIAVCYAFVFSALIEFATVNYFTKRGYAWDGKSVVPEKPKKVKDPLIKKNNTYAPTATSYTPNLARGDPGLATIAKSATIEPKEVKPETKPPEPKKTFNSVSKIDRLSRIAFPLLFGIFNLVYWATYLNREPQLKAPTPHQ
T1 sequence (P47870 26-512): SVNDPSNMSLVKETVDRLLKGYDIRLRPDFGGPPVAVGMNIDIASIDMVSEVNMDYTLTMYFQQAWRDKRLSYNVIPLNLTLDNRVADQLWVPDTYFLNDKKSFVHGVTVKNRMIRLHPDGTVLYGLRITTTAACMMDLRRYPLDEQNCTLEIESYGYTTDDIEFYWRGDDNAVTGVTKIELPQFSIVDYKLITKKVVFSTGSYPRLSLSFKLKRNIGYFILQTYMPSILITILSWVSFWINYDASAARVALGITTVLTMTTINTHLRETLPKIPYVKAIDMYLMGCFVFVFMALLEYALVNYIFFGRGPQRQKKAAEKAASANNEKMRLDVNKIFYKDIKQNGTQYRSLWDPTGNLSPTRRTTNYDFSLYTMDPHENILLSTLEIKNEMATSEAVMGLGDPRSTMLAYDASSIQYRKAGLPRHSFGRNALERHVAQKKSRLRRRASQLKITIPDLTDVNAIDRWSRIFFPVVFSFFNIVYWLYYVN
T1 sequence (P18507 40-475 partner): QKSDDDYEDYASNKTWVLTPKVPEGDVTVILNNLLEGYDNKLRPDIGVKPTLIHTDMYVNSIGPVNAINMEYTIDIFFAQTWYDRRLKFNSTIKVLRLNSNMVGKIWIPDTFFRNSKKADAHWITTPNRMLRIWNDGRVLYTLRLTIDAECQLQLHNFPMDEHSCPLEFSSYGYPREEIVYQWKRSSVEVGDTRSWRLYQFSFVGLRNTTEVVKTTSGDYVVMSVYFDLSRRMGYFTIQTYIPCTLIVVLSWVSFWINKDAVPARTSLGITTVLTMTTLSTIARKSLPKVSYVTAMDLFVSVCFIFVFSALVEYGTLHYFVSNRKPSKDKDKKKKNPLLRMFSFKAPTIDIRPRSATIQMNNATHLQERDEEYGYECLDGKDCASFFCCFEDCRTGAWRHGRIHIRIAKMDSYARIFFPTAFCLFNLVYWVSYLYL

Structure (SMILES)	Emax at 0.1 µM [%]	Emax at 1 µM [%]	Emax [%]	EC50 [nM]
Cc1nnn(CC(=O)[C@H]2CCC[C@H]3[C@@H]4CC[C@H]5C[C@H](O)CC[C@]5(C)[C@H]4CC[C@]23C)n1 [KH018]	0 to 20	20 to 40		
C[C@@]1(O)CC[C@@]2(C)[C@@H](CC[C@@H]3[C@@H]2CC[C@]2(C)[C@@H](C(=O)Cn4cc(C#N)cn4)CCC[C@@H]32)C1 [KH040]	0 to 20	20 to 40		
COc1ncnc2ncn(CC(=O)[C@H]3CCC[C@H]4[C@@H]5CC[C@H]6C[C@H](O)CC[C@]6(C)[C@H]5CC[C@]34C)c12 [KH017]	0 to 20	0 to 20		
C[C@@]1(O)CC[C@@]2(C)[C@@H](CC[C@@H]3[C@@H]2CC[C@]2(C)[C@@H](C(=O)COc4ccon4)CCC[C@@H]32)C1 [KH038]	0 to 20	40 to 60		
C[C@]12CC[C@@H](O)C[C@@H]1CC[C@@H]1[C@@H]2CC[C@]2(C)[C@@H](C(=O)Cn3cnc4cncnc43)CCC[C@@H]12 [KH012]	0 to 20	60 to 80		
C[C@]12CC[C@@H](O)C[C@@H]1CC[C@@H]1[C@@H]2CC[C@]2(C)[C@@H](C(=O)Cn3ccnc3)CCC[C@@H]12 [KH007]	0 to 20	40 to 60		
C[C@]12CC[C@@H](O)C[C@@H]1CC[C@@H]1[C@@H]2CC[C@]2(C)[C@@H](C(=O)Cn3cc(C(F)(F)F)cn3)CCC[C@@H]12 [KH010]	0 to 20	20 to 40		
Cn1nnnc1SCC(=O)[C@H]1CCC[C@H]2[C@@H]3CC[C@@H]4C[C@](C)(O)CC[C@@H]4[C@H]3CC[C@]12C [KH047]	0 to 20	0 to 20		
C[C@@]1(O)CC[C@@]2(C)[C@@H](CC[C@@H]3[C@@H]2CC[C@]2(C)[C@@H](C(=O)CSc4cccs4)CCC[C@@H]32)C1 [KH041]	0 to 20	60 to 80		
C[C@]12CC[C@@H](O)C[C@@H]1CC[C@@H]1[C@@H]2CC[C@]2(C)[C@@H](C(=O)Cn3cnc4ncnc(Cl)c43)CCC[C@@H]12 [KH015]	0 to 20	0 to 20		
C[C@@]1(O)CC[C@H]2[C@H](CC[C@@H]3[C@@H]2CC[C@]2(C)[C@@H](C(=O)Cn4ncnn4)CCC[C@@H]32)C1 [KH052]	0 to 20	0 to 20		
C[C@@]1(O)CC[C@@]2(C)[C@@H](CC[C@@H]3[C@@H]2CC[C@]2(C)[C@@H](C(=O)COc4ccc5ccccc5n4)CCC[C@@H]32)C1 [KH033]	0 to 20	20 to 40		
Cn1nnnc1SCC(=O)[C@H]1CCC[C@H]2[C@@H]3CC[C@H]4C[C@](C)(O)CC[C@]4(C)[C@H]3CC[C@]12C [KH031]	0 to 20	40 to 60		
C[C@]12CC[C@@H](O)C[C@@H]1CC[C@@H]1[C@@H]2CC[C@]2(C)[C@@H](C(=O)Cn3cc(C#N)cn3)CCC[C@@H]12 [KH002]	0 to 20	60 to 80	74.6	464
Cc1nnnn1CC(=O)[C@H]1CCC[C@H]2[C@@H]3CC[C@H]4C[C@H](O)CC[C@]4(C)[C@H]3CC[C@]12C [KH019]	0 to 20	0 to 20		
C[C@]12CC[C@@H](O)C[C@@H]1CC[C@@H]1[C@@H]2CC[C@]2(C)[C@@H](C(=O)CO)CCC[C@@H]12 [KH014]	0 to 20	40 to 60		
C[C@]12CC[C@@H](O)C[C@@H]1CC[C@@H]1[C@@H]2CC[C@]2(C)[C@@H](C(=O)Cn3cnnn3)CCC[C@@H]12 [KH005]	20 to 40	60 to 80		
C[C@@]1(O)CC[C@@]2(C)[C@@H](CC[C@@H]3[C@@H]2CC[C@]2(C)[C@@H](C(=O)COc4ncnc5c(F)cccc45)CCC[C@@H]32)C1 [KH035]	0 to 20	20 to 40		

Structure (SMILES)	Emax at 0.1 µM [%]	Emax at 1 µM [%]	Emax [%]	EC50 [nM]
COc1nnc(OCC(=O)[C@H]2CCC[C@H]3[C@@H]4CC[C@H]5C[C@](C)(O)CC[C@]5(C)[C@H]4CC[C@]23C)n1C [KH030]	0 to 20	0 to 20		
C[C@@]1(O)CC[C@@]2(C)[C@@H](CC[C@@H]3[C@@H]2CC[C@]2(C)[C@@H](C(=O)CO)CCC[C@@H]32)C1 [KH042]	0 to 20	40 to 60		
Cn1cnnc1SCC(=O)[C@H]1CCC[C@H]2[C@@H]3CC[C@H]4C[C@](C)(O)CC[C@]4(C)[C@H]3CC[C@]12C [KH037]	0 to 20	0 to 20		
C[C@@]1(O)CC[C@@]2(C)[C@@H](CC[C@@H]3[C@@H]2CC[C@]2(C)[C@@H](C(=O)COc4nc5ccccc5o4)CCC[C@@H]32)C1 [KH028]	0 to 20	0 to 20		
C[C@]12CC[C@@H](O)C[C@@H]1CC[C@@H]1[C@@H]2CC[C@]2(C)[C@@H](C(=O)Cn3cccn3)CCC[C@@H]12 [KH006]	20 to 40	40 to 60		
C[C@]12CC[C@@H](O)C[C@@H]1CC[C@@H]1[C@@H]2CC[C@]2(C)[C@@H](C(=O)Cn3ccc4ccccc43)CCC[C@@H]12 [KH009]	20 to 40	> 80		
C[C@@]1(O)CC[C@@]2(C)[C@@H](CC[C@@H]3[C@@H]2CC[C@]2(C)[C@@H](C(=O)Cn4cnnn4)CCC[C@@H]32)C1 [KH023]	0 to 20	0 to 20		
C[C@]12CC[C@@H](O)C[C@@H]1CC[C@@H]1[C@@H]2CC[C@]2(C)[C@@H](C(=O)Cn3ncc4ccccc43)CCC[C@@H]12 [KH011]	20 to 40	60 to 80		
C[C@@]1(O)CC[C@@]2(C)[C@@H](CC[C@@H]3[C@@H]2CC[C@]2(C)[C@@H](C(=O)COc4ncnc5cnc(F)cc45)CCC[C@@H]32)C1 [KH036]	0 to 20	0 to 20		
C[C@]12CC[C@@H](O)C[C@@H]1CC[C@@H]1[C@@H]2CC[C@]2(C)[C@@H](C(=O)Cn3cc(Cl)cn3)CCC[C@@H]12 [KH013]	0 to 20	0 to 20		
CC(=O)[C@H]1CCC[C@H]2[C@@H]3CC[C@H]4C[C@](C)(O)CC[C@]4(C)[C@H]3CC[C@]12C [KH021]	0 to 20	0 to 20		
Cc1cccc2c(OCC(=O)[C@H]3CCC[C@H]4[C@@H]5CC[C@H]6C[C@](C)(O)CC[C@]6(C)[C@H]5CC[C@]34C)ncnc12 [KH029]	0 to 20	0 to 20		
C[C@@]1(O)CC[C@@]2(C)[C@@H](CC[C@@H]3[C@@H]2CC[C@]2(C)[C@@H](C(=O)Cn4ccc(C#N)n4)CCC[C@@H]32)C1 [KH024]	0 to 20	40 to 60		
C[C@@]1(O)CC[C@H]2[C@H](CC[C@@H]3[C@@H]2CC[C@]2(C)[C@@H](C(=O)COc4ncnc5cnc(F)cc45)CCC[C@@H]32)C1 [KH048]	0 to 20	0 to 20		
C[C@]12CC[C@@H](O)C[C@@H]1CC[C@@H]1[C@@H]2CC[C@]2(C)[C@@H](C(=O)Cn3ccnn3)CCC[C@@H]12 [KH003]	20 to 40	60 to 80	72.8	478
C[C@]12CC[C@@H](O)C[C@@H]1CC[C@@H]1[C@@H]2CC[C@]2(C)[C@@H](C(=O)Cn3ccc(C#N)n3)CCC[C@@H]12 [KH008]	20 to 40	> 80		
C[C@@]1(O)CC[C@@]2(C)[C@@H](CC[C@@H]3[C@@H]2CC[C@]2(C)[C@@H](C(=O)COc4nc[nH]n4)CCC[C@@H]32)C1 [KH034]	0 to 20	0 to 20		
C[C@@]1(O)CC[C@@]2(C)[C@@H](CC[C@@H]3[C@@H]2CC[C@]2(C)[C@@H](C(=O)Cn4nccn4)CCC[C@@H]32)C1 [KH043]	0 to 20	20 to 40		
